Measured values reported in patent US20200087625A1, “METHODS FOR ISOLATING, EXPANDING AND ADMINISTERING CANCER SPECIFIC CD8+ T CELLS” (priority 2017, published 2020).

Columns and labels:
[1] = Serum cytokine analysis (Luminex) after systemic administration; format: in vivo, BALB/c mice; conditions: mouse, in vivo
Protocol: FIG. 36. […] BALB/c mice (n=5) were i.p. administered IV270 (200 μg=185 nmol/injection) or […] (58 μg=185 nmol/injection) and sera were collected 2, 4, 6, and 24 hours following the administration. The levels of TNFα, IL-12, and IP-IO were measured by Luminex assay. *P<0.05, **P<0.01 by two way ANOVA using a Bonferroni post hoc test comparing treatment groups.
The sera were collected from mice receiving […] of 1V136, 1V270 or vehicle 2, 4, 6, and 24 hours after i.p. administration (15). Cytokine levels in sera were determined by Luminex bead assays (MILLIPLEX™ MAP kit, Millip ore, Billerica, Mass.).

metastatic lung tumors = conditions: intratracheal administration; cited from earlier work
dermatological tumors = conditions: cited from earlier work

## COCCOc1nc(N)c2[nH]c(=O)n(Cc3ccccc3)c2n1 [1V136, reference compound]
[1]
  systemic proinflammatory cytokines: high levels of systemic proinflammatory cytokines

## CCCCNc1nc(N)c2[nH]c(=O)n(Cc3ccc(C)nc3)c2n1 [SM276001]
Metastatic lung tumors
  metastatic lung tumors: suppress metastatic lung tumors

## CC(C)Cn1cnc2c(N)nc3ccccc3c21 [imiquimod]
Dermatological tumors; patients with basal cell carcinoma and actinic keratosis, topical
  clinical efficacy: favorable clinical efficacy
Dermatological tumors; systemic administration
  toxicity on systemic administration: immunotoxicity induced by systemic administration
